Compound in one assay: CN(C)C/C=C/C(=O)Nc1cc2c(Nc3ccc(F)c(Cl)c3)ncnc2cc1O[C@H]1CCOC1 [AFATINIB]
Description: surviving fraction relative to DMSO-only wells; higher = less growth inhibition. Particulars: exposure time: 5 days. The gist of the method: (§1)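 Inhibitors at 0.5, 1, 5, 10, 50, 100, 500 and 1000 nM were applied continuously for five days to tumour cell lines seeded in log phase at 250–500 cells per well in 384-well plates 24 hours earlier. Viability was measured by CellTiter-Glo luminescence and expressed as surviving fraction relative to the median of DMSO-only wells. Luminescence was taken after 10 minutes at room temperature.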

Compound in assay [1]: T1, CNC(=O)c1ccc(N2C(=S)N(c3ccc(C#N)c(C(F)(F)F)c3)C(=O)C2(C)C)cc1F [MDV3100]
The assay is described as above. The following applies: exposure time: 5 days. In short, it runs like this:
as §1

Compound in the next assay: CC1(C)CC(=O)c2c(C(F)(F)F)nn(-c3ccc(C(N)=O)c(N[C@H]4CC[C@H](OC(=O)CN)CC4)c3)c2C1 [SNX-5422]
Description: area under dose-response curve of surviving fraction (unscaled, Aref=0) (surviving fraction x log10(nM)); higher = more resistant. The following applies: exposure time: 5 days; dose range 0.5-1000 nM. In short, it runs like this:
(§2)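 Surviving fractions were fitted by 3-parameter logistic regression in the drc R package to give dose-response survival curves. They came from tumour cell lines treated for five days with eight inhibitor concentrations from 0.5 to 1000 nM and read by CellTiter-Glo luminescence against DMSO-only wells. The area under the curve is the unscaled activity area. It was calculated over log10 dose with Aref = 0.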

Compound in the next assay: CC[C@@H]1C(=O)N(C)c2cnc(Nc3ccc(C(=O)NC4CCN(C)CC4)cc3OC)nc2N1C1CCCC1 [BI-2536]
The assay is described as above. Particulars: exposure time: 5 days; dose range 0.5-1000 nM. The gist of the method: as §2

Compound in assay [2]: T1, MDV3100
Described as above. Particulars: exposure time: 5 days; dose range 0.5-1000 nM. In short, it runs like this: as §2

Compound in a further assay: Nc1nc2[nH]cnc2c(=S)[nH]1 [TIOGUANINE]
The description is as above. The following applies: exposure time: 5 days; dose range 0.5-1000 nM. In short, it runs like this: as §2

± gives the standard deviation of the averaged measurements.

As for OSHN BONE, the surviving fraction with AFATINIB (0.5 nM) was determined as 1.08 ± 0.03; with AFATINIB (1 nM), 1.07 ± 0.031; with AFATINIB (5 nM), 1.09 ± 0.042; with AFATINIB (10 nM), 1.07 ± 0.032; with AFATINIB (50 nM) it was 1.11 ± 0.032; with AFATINIB (100 nM) it was 1.11 ± 0.033. The surviving fraction with AFATINIB (500 nM) was 1.1 ± 0.031; in the assay with AFATINIB (1000 nM), 1.06 ± 0.019; with MDV3100 [1] (0.5 nM), 1.04 ± 0.02; in the assay with MDV3100 [1] (1 nM), 1.02 ± 0.019; with MDV3100 [1] (5 nM), 1.025 ± 0.0047; with MDV3100 [1] (10 nM), 1.01 ± 0.015. Besides, the surviving fraction with MDV3100 [1] (50 nM) was 1.067 ± 0.0085; with MDV3100 [1] (100 nM), 1.07 ± 0.04; in the assay with MDV3100 [1] (500 nM), 1.07 ± 0.026; in the assay with MDV3100 [1] (1000 nM), 1.041 ± 0.0068. Also, the entries for the “area under dose-response curve” value with SNX-5422, with BI-2536 and with MDV3100 [2] were 2.25, 1.13 and 3.44, respectively.
Take SCC90 HEADNECK: the surviving fraction with AFATINIB (0.5 nM) is 1 ± 0.04; in the assay with AFATINIB (1 nM), 0.907 ± 0.086; with AFATINIB (5 nM) it was 0.621 ± 0.036; in the assay with AFATINIB (10 nM) it was 0.495 ± 0.028; with AFATINIB (50 nM), 0.42 ± 0.08; in the assay with AFATINIB (100 nM), 0.351 ± 0.0068. The surviving fraction with AFATINIB (500 nM) amounted to 0.288 ± 0.011; with AFATINIB (1000 nM) it was 0.235 ± 0.011; with MDV3100 [1] (0.5 nM), 0.893 ± 0.093; with MDV3100 [1] (1 nM), 0.91 ± 0.076; in the assay with MDV3100 [1] (5 nM), 1.04 ± 0.11; with MDV3100 [1] (10 nM), 0.942 ± 0.1. The surviving fraction stood at 1.17 ± 0.2 with MDV3100 [1] (50 nM), 1.03 ± 0.13 in the assay with MDV3100 [1] (100 nM), 0.86 ± 0.054 in the assay with MDV3100 [1] (500 nM) and 0.925 ± 0.099 with MDV3100 [1] (1000 nM). The “area under dose-response curve” value amounted to 1.96 with SNX-5422, 0.697 in the assay with BI-2536 and 3.22 with TIOGUANINE.
Consider SG27 HEADNECK, for which the surviving fraction with AFATINIB (0.5 nM) amounted to 1 ± 0.09; in the assay with AFATINIB (1 nM) it was 0.981 ± 0.035; with AFATINIB (5 nM), 1.04 ± 0.041; with AFATINIB (10 nM) it was 1 ± 0.14; in the assay with AFATINIB (50 nM), 0.883 ± 0.012; in the assay with AFATINIB (100 nM) it was 0.966 ± 0.13. The surviving fraction with AFATINIB (500 nM) is 0.865 ± 0.093; with AFATINIB (1000 nM), 0.831 ± 0.068; in the assay with MDV3100 [1] (0.5 nM), 1.064 ± 0.0067; in the assay with MDV3100 [1] (1 nM), 1.01 ± 0.12; in the assay with MDV3100 [1] (5 nM), 1.07 ± 0.13; with MDV3100 [1] (10 nM) it was 0.935 ± 0.091. For the same test system, the surviving fraction with MDV3100 [1] (50 nM) was 1.09 ± 0.04; with MDV3100 [1] (100 nM), 1.19 ± 0.081; in the assay with MDV3100 [1] (500 nM), 1.21 ± 0.2; with MDV3100 [1] (1000 nM), 1.17 ± 0.19. For the same test system, the “area under dose-response curve” value amounted to 2.78 with SNX-5422, 2.97 in the assay with BI-2536 and 3.34 with TIOGUANINE.
On to SKBR3 BREAST, for which the surviving fraction in the assay with AFATINIB (0.5 nM) turned out to be 0.866 ± 0.033; with AFATINIB (1 nM), 0.699 ± 0.049; in the assay with AFATINIB (5 nM), 0.322 ± 0.015; with AFATINIB (10 nM), 0.265 ± 0.013; with AFATINIB (50 nM), 0.167 ± 0.011; with AFATINIB (100 nM), 0.131 ± 0.007. The surviving fraction in the assay with AFATINIB (500 nM) came out at 0.119 ± 0.0076; with AFATINIB (1000 nM), 0.122 ± 0.006; in the assay with MDV3100 [1] (0.5 nM), 1.02 ± 0.093; in the assay with MDV3100 [1] (1 nM) it was 1.09 ± 0.12; in the assay with MDV3100 [1] (5 nM), 1.11 ± 0.069; with MDV3100 [1] (10 nM), 1.1 ± 0.17. Besides, the surviving fraction in the assay with MDV3100 [1] (50 nM) stood at 1 ± 0.11; with MDV3100 [1] (100 nM), 1.052 ± 0.0065; with MDV3100 [1] (500 nM), 0.971 ± 0.046; with MDV3100 [1] (1000 nM), 1.09 ± 0.18. Also, the “area under dose-response curve” value in the assay with SNX-5422 is 2.08; in the assay with BI-2536, 0.991; with TIOGUANINE, 3.36.

Values taken from the supplement of paper PMC6045584.
